From ChEMBL document CHEMBL1201862, “PubChem BioAssay data set” (2004)
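Five concentrations, 48 hours, 96-well plates. GI50 marks 50% less growth.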 Active and inactive are the calls of the source. No stated cut-off is given here; in the data, active = GI50 up to about 1.1 µM and inactive = higher.

What was measured:
Experiment in all cases: growth of human tumour cells (NCI), 48 h
CCRF-CEM = test system: CCRF-CEM
RXF 631 = test system: RXF 631
IGROV-1 = test system: IGROV-1
SNB-19 = test system: SNB-19
SF-295 = test system: SF-295
OVCAR-8 = test system: OVCAR-8
HT-29 = test system: HT-29
SF-268 = test system: SF-268
SF-539 = test system: SF-539
K562 = test system: K562
RPMI-8226 = test system: RPMI-8226
KM12 = test system: KM12
CAKI-1 = test system: CAKI-1
DMS-273 = test system: DMS-273
EKVX = test system: EKVX
RXF 393 = test system: RXF 393
SK-MEL-28 = test system: SK-MEL-28
LXFL 529 = test system: LXFL 529
U-251 = test system: U-251
NCI-H522 = test system: NCI-H522
SN12C = test system: SN12C
KM-20L2 = test system: KM-20L2
LOX IMVI = test system: LOX IMVI
MOLT-4 = test system: MOLT-4
UACC-62 = test system: UACC-62
OVCAR-5 = test system: OVCAR-5
OVCAR-4 = test system: OVCAR-4
M14 = test system: M14
SNB-78 = test system: SNB-78
SK-OV-3 = test system: SK-OV-3
HL-60 = test system: HL-60
A549 = test system: A549
NCI-H23 = test system: NCI-H23
DMS-114 = test system: DMS-114
UACC-257 = test system: UACC-257
UO-31 = test system: UO-31
TK-10 = test system: TK-10
SW-620 = test system: SW-620
HCC 2998 = test system: HCC 2998
SNB-75 = test system: SNB-75
SK-MEL-2 = test system: SK-MEL-2
COLO 205 = test system: COLO 205
DLD-1 = test system: DLD-1
Malme-3M = test system: Malme-3M
ACHN = test system: ACHN
HCT-15 = test system: HCT-15
SK-MEL-5 = test system: SK-MEL-5

With `COC(=O)CN(C)P(=O)(N1CC1)N1CC1` the GI50 (CCRF-CEM) was 36.9 µM (inactive), the GI50 (RXF 631) was > 100 µM (inactive) and the GI50 (IGROV-1) was > 100 µM (inactive). The GI50 (SNB-19) was > 100 µM (inactive), the GI50 (SF-295) was 90.2 µM (inactive) and the GI50 (OVCAR-8) was > 100 µM (inactive). For the same molecule, the GI50 (HT-29) was > 100 µM (inactive), the GI50 (SF-268) was 89.7 µM (inactive) and the GI50 (SF-539) was > 100 µM (inactive). For the same molecule, the GI50 (K562) was > 100 µM (inactive), the GI50 (RPMI-8226) was > 100 µM (inactive) and the GI50 (KM12) was > 100 µM (inactive). For the same molecule, the GI50 (CAKI-1) was > 100 µM (inactive), the GI50 (DMS-273) was > 100 µM (inactive) and the GI50 (EKVX) was > 100 µM (inactive). The GI50 (RXF 393) was > 100 µM (inactive), the GI50 (SK-MEL-28) was > 100 µM (inactive) and the GI50 (LXFL 529) was > 100 µM (inactive). The GI50 (U-251) was > 100 µM (inactive), the GI50 (NCI-H522) was > 100 µM (inactive) and the GI50 (SN12C) was 69.5 µM (inactive). For the same molecule, the GI50 (KM-20L2) was > 100 µM (inactive), the GI50 (LOX IMVI) was 76 µM (inactive) and the GI50 (MOLT-4) was 33 µM (inactive). The GI50 (UACC-62) was 90.2 µM (inactive), the GI50 (OVCAR-5) was > 100 µM (inactive) and the GI50 (OVCAR-4) was > 100 µM (inactive). The GI50 (M14) was > 100 µM (inactive), the GI50 (SNB-78) was > 100 µM (inactive) and the GI50 (SK-OV-3) was > 100 µM (inactive). For the same molecule, the GI50 (HL-60) was 26.9 µM (inactive), the GI50 (A549) was > 100 µM (inactive) and the GI50 (NCI-H23) was 83.4 µM (inactive). For the same molecule, the GI50 (DMS-114) was 55.1 µM (inactive), the GI50 (UACC-257) was > 100 µM (inactive) and the GI50 (UO-31) was > 100 µM (inactive). The GI50 (TK-10) was > 100 µM (inactive), the GI50 (SW-620) was > 100 µM (inactive) and the GI50 (HCC 2998) was > 100 µM (inactive). The GI50 (SNB-75) was > 100 µM (inactive), the GI50 (SK-MEL-2) was > 100 µM (inactive) and the GI50 (COLO 205) was > 100 µM (inactive). For the same molecule, the GI50 (DLD-1) was > 100 µM (inactive), the GI50 (Malme-3M) was > 100 µM (inactive) and the GI50 (ACHN) was 71.4 µM (inactive). For the same molecule, the GI50 (HCT-15) was greater than 100 µM and the GI50 (SK-MEL-5) was > 100 µM (inactive).
